Measured values from ChEMBL document CHEMBL3272295, “Drugs derived from cannabinoids. 5. delta6a,10a-Tetrahydrocannabinol and heterocyclic analogs containing aromatic side chains” (J Med Chem, 1976).
Active and inactive are the calls of the source. No cut-off for these calls is given here.

Key:
Rattus norvegicus [1] = assay: Antipsychotic activity in rat assessed as reduction of methamphetamine-induced hyperactivity at 10 mg/kg, po administered prior to methamphetamine challenge relative to vehicle-treated control; type: functional; design: scale not given: the % may be the effect or the level left
Rattus norvegicus [2] = assay: Antiulcer activity in albino Sprague-Dawley rat reserpine ulcer model assessed as prevention of reserpine-induced gastric lesions by measuring ulcer index scores at 10 mg/kg, po administered 30 mins prior to reserpine challenge measured after 6 hrs; type: functional; details: Stomach
Rattus norvegicus [3] = assay: Antisecretory activity in Sprague-Dawley rat assessed as decrease in volume at 50 mg/kg, po administered 30 mins prior to pylorus ligation measured after 4 hrs relative to control; type: functional; design: scale not given: the % may be the effect or the level left
Rattus norvegicus [4] = assay: Antisecretory activity in Sprague-Dawley rat assessed as decrease in pepsin output at 50 mg/kg, po administered 30 mins prior to pylorus ligation measured after 4 hrs relative to control; type: functional; design: scale not given: the % may be the effect or the level left
Rattus norvegicus [5] = species on record: Rattus norvegicus; assay: animal or person; type: functional; details: Charles River, route oral
Description: Antidiarrheal activity in Charles River rat assessed as inhibition of castor oil-induced diarrhea by measuring protected animals at 0.5 mg/kg, po administered 1 hr prior to castor oil challenge measured after 1 hr relative to vehicle-treated control

Rattus norvegicus [6] = assay: Antianxiety activity in Long-Evans rat assessed as reduction in motor activity at 1 mg/kg, po after 2 hrs relative to vehicle-treated control; type: functional; design: scale not given: the % may be the effect or the level left
[7] = Acute toxicity in po dosed mouse; type: organism-based; details: in vivo
Rattus norvegicus [8] = assay: Antisecretory activity in Sprague-Dawley rat assessed as decrease in acidity at 50 mg/kg, po administered 30 mins prior to pylorus ligation measured after 4 hrs relative to control; type: functional; design: scale not given: the % may be the effect or the level left
Rattus norvegicus [9] = assay: Antianxiety activity in Long-Evans rat assessed as reduction in motor activity at 4 mg/kg, po after 2 hrs relative to vehicle-treated control; type: functional; design: scale not given: the % may be the effect or the level left
Rattus norvegicus [10] = assay: Analgesic activity in po dosed Sprague-Dawley rat after 15 to 90 mins by tail flick test; type: functional
Rattus norvegicus [11] = assay: Antiulcer activity in albino Sprague-Dawley rat reserpine ulcer model assessed as prevention of reserpine-induced gastric lesions by measuring ulcer index scores at 50 mg/kg, po administered 30 mins prior to reserpine challenge measured after 6 hrs; type: functional, Stomach
Rattus norvegicus [12] = assay: Antihypertensive activity in spontaneously hypertensive rat model assessed as reduction in blood pressure at 10 mg/kg, po after 3 hrs; type: functional; design: scale not given: the % may be the effect or the level left
Felis catus [13] = assay: Hypnotic activity in cat assessed as increase in total sleep time at 0.25 mg/kg administered orally through diet measured for 12 hrs by EEG analysis; type: functional; details: route oral
Rattus norvegicus [14] = assay: Antiulcer activity in albino Sprague-Dawley rat stress ulcer model assessed as prevention of stress-induced gastric lesions by measuring ulcer index score at 40 mg/kg, po administered 30 mins prior to stress measured after 4 hrs; type: functional, Stomach
Felis catus [15] = assay: Hypnotic activity in cat assessed as increase in total sleep time at 0.5 mg/kg administered orally through diet measured for 12 hrs by EEG analysis; type: functional; details: route oral
Rattus norvegicus [16] = assay: Antiulcer activity in albino Sprague-Dawley rat shay ulcer model assessed as ulcer index scores at 50 mg/kg administered intraduodenally post pyloric ligation measured after 18.5 hrs relative to vehicle-treated control; type: functional; details: route intraduodenal
Mus musculus [17] = assay: Analgesic activity in po dosed mouse assessed as inhibition of acetic acid-induced writhing administered 30 mins prior to acetic acid challenge measured after 5 mins for 20 mins; type: functional
Felis catus [18] = assay: Hypnotic activity in cat assessed as decrease in non-REM sleep time at 0.5 mg/kg administered orally through diet measured for 12 hrs by EEG analysis; type: functional; details: route oral
Canis familiaris = assay: Antianxiety activity in po dosed dog assessed as ataxia administered as single dose measured up to 24 hrs; type: functional; details: Canis lupus familiaris, read-out: MED
Rattus norvegicus [19] = assay: Antihypertensive activity in spontaneously hypertensive rat model assessed as reduction in blood pressure at 10 mg/kg, po after 24 hrs; type: functional; design: scale not given: the % may be the effect or the level left
Felis catus [20] = assay: Hypnotic activity in cat assessed as increase in non-REM sleep time at 0.25 mg/kg administered orally through diet measured for 12 hrs by EEG analysis; type: functional; details: route oral
Rattus norvegicus [21] = assay: Antihypertensive activity in spontaneously hypertensive rat model assessed as reduction in blood pressure at 0.3 mg/kg, po after 24 hrs; type: functional; design: scale not given: the % may be the effect or the level left
Rattus norvegicus [22] = assay: Antipsychotic activity in rat assessed as reduction of methamphetamine-induced hyperactivity at 20 mg/kg, po administered prior to methamphetamine challenge relative to vehicle-treated control; type: functional; design: scale not given: the % may be the effect or the level left
Rattus norvegicus [23] = assay: Antiulcer activity in albino Sprague-Dawley rat stress ulcer model assessed as prevention of stress-induced gastric lesions by measuring ulcer index score at 10 mg/kg, po administered 30 mins prior to stress measured after 4 hrs; type: functional, Stomach
Mus musculus [24] = assay: Antianxiety activity in albino BALB/cJ mouse assessed as reduction in footshock-induced fighting behavior at 10 mg/kg, po after 30 to 90 mins; type: functional; design: scale not given: the % may be the effect or the level left
Rattus norvegicus [25] = assay: Antihypertensive activity in spontaneously hypertensive rat model assessed as reduction in blood pressure at 0.3 mg/kg, po after 3 hrs; type: functional; design: scale not given: the % may be the effect or the level left
Rattus norvegicus [26] = assay: Antisecretory activity in Sprague-Dawley rat assessed as decrease in acid output at 50 mg/kg, po administered 30 mins prior to pylorus ligation measured after 4 hrs relative to control; type: functional; design: scale not given: the % may be the effect or the level left
Rattus norvegicus [27] = assay: Antiulcer activity in albino Sprague-Dawley rat shay ulcer model assessed as ulcer index scores at 20 mg/kg administered intraduodenally post pyloric ligation measured after 18.5 hrs relative to vehicle-treated control; type: functional
Mus musculus [28] = assay: Antianxiety activity in albino BALB/cJ mouse assessed as reduction in footshock-induced fighting behavior at 5 mg/kg, po after 30 to 90 mins; type: functional; design: scale not given: the % may be the effect or the level left
Rattus norvegicus [29] = assay: Antianxiety activity in Long-Evans rat assessed as reduction in motor activity at 5 mg/kg, po after 2 hrs relative to vehicle-treated control; type: functional; design: scale not given: the % may be the effect or the level left
Rattus norvegicus [30] = assay: Antipsychotic activity in rat assessed as reduction of methamphetamine-induced hyperactivity at 5 mg/kg, po administered prior to methamphetamine challenge relative to vehicle-treated control; type: functional; design: scale not given: the % may be the effect or the level left
Rhesus monkey = assay: Antianxiety activity in po dosed rhesus monkey assessed as antiagressive behavior measured every hour post dosing; type: functional; details: Macaca mulatta, read-out: MED
Mus musculus [31] = assay: Analgesic activity in mouse assessed as inhibition of acetic acid-induced writhing at 40 mg/kg, po administered 30 mins prior to acetic acid challenge measured after 5 mins for 20 mins; type: functional
Rattus norvegicus [32] = assay: Antianxiety activity in Long-Evans rat assessed as reduction in motor activity at 10 mg/kg, po after 2 hrs relative to vehicle-treated control; type: functional; design: scale not given: the % may be the effect or the level left
Mus musculus [33] = assay: Antidepressant activity in po dosed mouse assessed as potentiation of DOPA-induced effect administered 4 hrs prior to DOPA challenge; type: functional; details: read-out: MED
Rattus norvegicus [34] = assay: Antihypertensive activity in spontaneously hypertensive rat model assessed as reduction in blood pressure at 3 mg/kg, po after 3 hrs; type: functional; design: scale not given: the % may be the effect or the level left
Rattus norvegicus [35] = assay: Antidiarrheal activity in Charles River rat assessed as inhibition of castor oil-induced diarrhea by measuring protected animals at 0.2 mg/kg, po administered 1 hr prior to castor oil challenge measured after 1 hr relative to vehicle-treated control; type: functional
Rattus norvegicus [36] = assay: Antipsychotic activity in rat assessed as reduction of methamphetamine-induced hyperactivity at 2.5 mg/kg, po administered prior to methamphetamine challenge relative to vehicle-treated control; type: functional; design: scale not given: the % may be the effect or the level left
Rattus norvegicus [37] = assay: Antihypertensive activity in spontaneously hypertensive rat model assessed as reduction in blood pressure at 3 mg/kg, po after 24 hrs; type: functional; design: scale not given: the % may be the effect or the level left
Mus musculus [38] = assay: Anticonvulsant activity in po dosed mouse assessed as dose required to protect 80% of animal measured after 1 to 4 hrs by audiogenic seizure test; type: functional
Felis catus [39] = assay: Hypnotic activity in cat assessed as increase in non-REM sleep time at 0.5 mg/kg administered orally through diet measured for 12 hrs by EEG analysis; type: functional; details: route oral
Rattus norvegicus [40] = assay: Antidiarrheal activity in Charles River rat assessed as inhibition of castor oil-induced diarrhea by measuring protected animals at 0.1 mg/kg, po administered 1 hr prior to castor oil challenge measured after 1 hr relative to vehicle-treated control; type: functional

| SMILES | inhibition in vivo at 0.5 mg/kg (Rattus norvegicus [5]) [%] | LD50 [7] [mg/kg] | ED50 (Rattus norvegicus [10]) [mg/kg] | Activity (Rattus norvegicus [12]) [%] | Time (Felis catus [15]) [min] | ED50 (Mus musculus [17]) [mg/kg] | minimal effective dose (Canis familiaris) [mg/kg] | Activity (Rattus norvegicus [19]) [%] | Activity (Rattus norvegicus [21]) [%] | Activity (Mus musculus [24]) [%] | Activity (Rattus norvegicus [25]) [%] | Activity (Mus musculus [28]) [%] | Activity (Rattus norvegicus [29]) [%] | Activity (Rattus norvegicus [30]) [%] | minimal effective dose (Rhesus monkey) [mg/kg] | inhibition in vivo at 40 mg/kg (Mus musculus [31]) [%] | other results |
| --- | --- | --- | --- | --- | --- | --- | --- | --- | --- | --- | --- | --- | --- | --- | --- | --- | --- |
| C#CCN1CCC2=C(C1)c1c(O)cc(C(C)CCCc3ccc(F)cc3)cc1OC2(C)C (configuration not stated) | 53 | ≥ 1000 | 3.7 | 30 | 99 | 5.3 | 1 | 15 | 15 | 47 | 22 | – | – | – | – | – | Activity (Rattus norvegicus [1]): 8%; Activity (Rattus norvegicus [2]): inactive; Activity (Rattus norvegicus [3]): 33.3%; Activity (Rattus norvegicus [4]): 22.2%; Activity (Rattus norvegicus [6]): 60%; Activity (Rattus norvegicus [8]): 12.8%; Activity (Rattus norvegicus [9]): 77%; UI (Rattus norvegicus [11]): 1.5; Time (Felis catus [13]): 45 min; UI (Rattus norvegicus [14]): 1.4; UI (Rattus norvegicus [16]): 1.3; Time (Felis catus [18]): -20 min; Time (Felis catus [20]): 45 min; Activity (Rattus norvegicus [22]): 34%; UI (Rattus norvegicus [23]): 1.7; Activity (Rattus norvegicus [26]): 42.9%; Activity (Rattus norvegicus [27]): Active |
| Br.CC(CCCc1ccc(F)cc1)c1cc(O)c2c(c1)OC(C)(C)C1=C2C2CCN1CC2 (configuration not stated) | 10 | ≥ 1000 | – | – | – | – | 1 | – | – | – | – | 23 | 23 | 4 | 1 | 32 | Activity (Rattus norvegicus [32]): 46%; minimal effective dose (Mus musculus [33]): 20 mg/kg |
| CC(CCCc1ccc(F)cc1)c1cc(O)c2c(c1)OC(C)(C)C1=C2CCC1 (configuration not stated) | 20 | ≥ 1000 | – | 3 | – | – | 10 | 30 | – | 47 | – | – | 41 | 58 | 10 | 22 | – |
| CCCCCC(C)C(C)c1cc(O)c2c(c1)OC(C)(C)C1=C2CC(C)CC1 (configuration not stated) | – | ≥ 1000 | 1.4 | – | 62 | 3 | 1 | – | 12 | 92 | 19 | 58 | 96 | 70 | 10 | – | Activity (Rattus norvegicus [34]): 37%; inhibition in vivo at 0.2 mg/kg (Rattus norvegicus [35]): 80%; Activity (Rattus norvegicus [36]): 48%; Activity (Rattus norvegicus [37]): 28%; Activity (Mus musculus [38]): 10 mg/kg; Time (Felis catus [39]): 122 min; inhibition in vivo at 0.1 mg/kg (Rattus norvegicus [40]): 50% |
